Data: patent US11014956B2, “Compositions and methods for altering second messenger signaling” (Memorial Sloan Kettering Cancer Center, priority 2013, dated 2021)
Substitutions are numbered along the chain they refer to. Names may count otherwise. “Also recorded” adds a separate entry of the source. Blank lines part the entries; values can stand above or below the molecule they belong to.

Legend:
[1] = test system: IFN-β luciferase reporter; assay: IFN-β luciferase reporter assay in HEK 293 cells co-expressing cGAS and STING; type: cell-based; details: for cGAS function in cells (in words): alanine mutants of full-length cGAS expressed in HEK 293 cells
Description: To assess the impact on cGAS function in cells, we generated additional alanine mutants of cGAS for expression in mammalian cells. The full-length cGAS mutants together with STING and an IFN-β luciferase reporter were transiently expressed in HEK 293 cells. […] (Arg364, Tyr 421; FIG. 2F, 4B), while single mutants of these residues only slightly impaired cGAS function (FIG. 7C). […] Similarly, conversion of the highly mobile Gly198 to sterically restricted proline abrogated cGAS activity (FIG. 13E).
3×10^4 HEK293 cells per 96-well were reverse-transfected in triplicates with a mixture of pGL3-IFNbeta-Gluc (50 ng), pLenti-EF1-Fluc (25 ng), pLenti-EF1-mSTING (25 ng) and cGAS-expression plasmid (25 ng, pMAX-cGAS WT or mutants) or Control plasmid pMAX-GFP (Amaxa) using Trans-IT LT1 (MirusBio, Madison, Wis.). After 36 h cells were lysed in passive lysis buffer. Firefly and gaussia Luciferase activities were determined on an EnVision reader (Perkin Elmer, Waltham, Mass.) using the respective substrates D-luciferin and coelenterazine (PJK GmbH, Kleinblittersdorf, Germany). IFNbeta-Gluc values were normalized to constitutive firefly luciferase values and fold induction was calculated in relation to control-plasmid pMAX-GFP.

cGAS [2] = assay: cGAS activity assay, c[G(2′,5′)pA(3′,5′)p] formation by thin-layer chromatography; type: biochemical, mouse; details: for c[G(2′,5′)pA(3′,5′)p] formation by cGAS protein in vitro (in words): purified recombinant cGAS incubated with DNA
Description: (§1) To validate the structural results, we established an activity assay using thin-layer chromatography (FIG. 11) and monitored cyclic dinucleotide c[G(2′,5′)pA(3′,5′)p] formation from ATP and GTP using purified recombinant full-length and truncated cGAS proteins. cGAS required the presence of dsDNA and Mg^2+ or Mn^2+ for activity (FIG. 5A-B). […] The trace amount of c[G(2′,5′)pA(3′,5′)p]detected for the specific ssDNA used in this experiment was attributable to a stretch of sequence complementarity, and the substitution of G by 8-oxoguanine (8-oxoG) was sufficient to destabilize its predicted interaction and eliminate the residual cGAS activity.
(§2) Purified recombinant full length (fl, amino acids 1-507) and truncated (tr, amino acids 147-507) murine cGAS, including truncated mutant versions 1-6, were incubated in 20 μL reactions containing: 1 μM cGAS, 3.3 μM dsDNA, 5 mM MgCl2, 150 mM NaCl, 20 mM Tris-HCl, pH 7.5 at 25° C., 1 mM DTT, 10% glycerol, 1 mM each of nucleotides (typically ATP and GTP), and α^32P or γ^32P radiolabelled NTPs or dNTPs at 37° C. for 40 min. Reactions were stopped by addition of 20 μL of 50 mM EDTA. 2 μL of reaction solution was spotted onto high-performance TLC plates (HPTLC silica gel, 60 Å pores, F254, 10×10 cm, cat #1.05628.0001, EMD Millipore) and products were separated with Solvent 1 (NH4HCO3:C2H5OH:H2O [0.2 M:30%:70%], w:v:v) or 2 (NH4HCO3:C2H5OH:H2O [0.025 M:30%:70%], w:v:v) at 25° C. for 1 h. Reaction products were visualized by UV (254 nm) and phosphorimaging (Typhoon FLA 9500, GE Healthcare). Images were processed using Adobe Photoshop and Illustrator CS5. The TLC conditions used were largely based on a protocol established to separate 3′,5′ cAMP (Higashida et al, 2012).
(§3) The yield of c[G(2′,5′)pA(3′,5′)p] generated was calculated by densitometry analysis of TLC experiments, using FIJI (ImageJ 1.47i) or spectrophotemetrically (absorbance at 260 nm, E260=25.4×10^3) after purification from HPLC. For densitometry analyses, the fraction of α^32P-labelled c[G(2′,5′)pA(3′,5′)p] over total radioactivity per lane (c[G(2′,5′)pA(3′,5′)p]plus remaining α^32P-labelled ATP or GTP) was calculated.

cGAS [3] = biological target: T1, cGAS (Mus musculus, UniProt Q8C6L5); assay: as above; type: biochemical; details: for cyclic dinucleotide formation with the nucleotide as cGAS substrate in place of GTP or ATP (in words): cGAS plus dsDNA
T1 construct: Purified recombinant full length (fl, amino acids 1-507) and truncated (tr, amino acids 147-507) murine cGAS; His6-SUMO (N, cleaved yes); made in house; host or cells: E. coli BL21 (DE3) RIL
T1 sequence (Q8C6L5 whole entry, the tested form may be a part): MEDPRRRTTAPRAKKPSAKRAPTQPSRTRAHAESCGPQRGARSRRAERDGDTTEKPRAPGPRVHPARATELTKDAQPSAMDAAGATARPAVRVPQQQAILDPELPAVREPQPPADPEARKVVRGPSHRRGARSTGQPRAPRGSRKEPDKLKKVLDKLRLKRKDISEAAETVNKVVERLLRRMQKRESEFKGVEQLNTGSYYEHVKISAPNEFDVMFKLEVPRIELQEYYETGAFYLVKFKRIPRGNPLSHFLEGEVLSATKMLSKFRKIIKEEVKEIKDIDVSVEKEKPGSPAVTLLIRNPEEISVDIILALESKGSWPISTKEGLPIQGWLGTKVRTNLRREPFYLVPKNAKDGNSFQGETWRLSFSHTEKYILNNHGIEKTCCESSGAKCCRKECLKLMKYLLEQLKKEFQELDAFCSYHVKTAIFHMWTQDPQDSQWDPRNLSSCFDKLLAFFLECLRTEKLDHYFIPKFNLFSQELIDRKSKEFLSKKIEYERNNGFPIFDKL
Description: as §1, §2, §3

THP 1 cells = details: concentrations as low as; cited from earlier work
Raw264.7 cells = details: concentrations as low as; cited from earlier work

Molecule: Y421A, R364A: cGAS dual mutant of the base stacking residues Arg364 and Tyr421
cGAS function in cells (in words) [1]: loss in the majority of activity | cGAS function in cells (in words) ([1]; Tyr 421): abrogation of cGAS activity

turnovers per enzyme molecule (cGAS [2]; multiple turnover conditions, 40 min): over 750
Molecule: cGAS: mouse cyclic GMP-AMP synthase, wild type, full length (amino acids 1-507), recombinant or expressed in cells
estimated observed rate constant (cGAS [2]; multiple turnover conditions): 0.19 min⁻¹ | original ATP and GTP converted to c[G(2′,5′)pA(3′,5′)p] (cGAS [2]; multiple turnover conditions, within 40 min, n=5): Over 78% | enhanced luciferase activity compared to a control plasmid ([1]; HEK 293 cells, STING and IFN-β luciferase reporter transiently expressed): ~15 fold

Molecule: Arg161: cGAS single alanine mutant of DNA binding residue Arg161
cGAS function in cells (in words) [1]: not sufficient to impair cGAS activity

Molecule: Nc1ncnc2c1ncn2[C@H]1C[C@H](O)[C@@H](COP(=O)(O)OP(=O)(O)OP(=O)(O)O)O1 [2′-dATP, reference compound]
cyclic dinucleotide formation with the nucleotide as cGAS substrate in place of GTP or ATP (in words) (cGAS [3]): forms; also recorded: markedly reduced formation of cyclic GA-dinucleotides

Molecule: cGAS (tr): truncated murine cGAS, amino acids 147-507
c[G(2′,5′)pA(3′,5′)p] formation by cGAS protein in vitro (in words) (cGAS [2]): exhibits activity, albeit less than cGAS (fl)

Molecule: S199A: cGAS single mutant S199A
c[G(2′,5′)pA(3′,5′)p] formation by cGAS protein in vitro (in words) (cGAS [2]): retained substantial activity | cGAS function in cells (in words) [1]: did not severely impair cGAS function

cyclic dinucleotide formation with the nucleotide as cGAS substrate in place of GTP or ATP (in words) (cGAS [3]): reduced levels of c[G(2′,5′)pA(3′,5′)p]
Molecule: Nc1ncnc2c1ncn2[C@@H]1O[C@H](COP(=O)(O)OP(=O)(O)O)[C@@H](O)[C@H]1O [ADP, reference compound]

Molecule: Nc1ncnc2c1ncn2[C@@H]1O[C@H](COP(=O)(O)OP(=O)(O)OP(=O)(O)O)C[C@H]1O [3′-dATP, reference compound]
cyclic dinucleotide formation with the nucleotide as cGAS substrate in place of GTP or ATP (in words) (cGAS [3]): markedly reduced formation of cyclic GA-dinucleotides

Molecule: 16 bp dsDNA: 16 bp dsDNA used for crystallography (SEQ ID NO: 47 and 48) (chain 1 AAATTGCCGAAGACGAA; chain 2 TTTCGTCTTCGGCAATT; DNA, backbone not given here) [reference compound]
stimulation of cGAS cyclic dinucleotide formation by the nucleic acid (in words) (cGAS [3]; ATP and GTP as substrates): elicited some activity

Molecule: G198A: cGAS single mutant G198A
cGAS function in cells (in words) [1]: did not severely impair cGAS function

Molecule: Asp307: cGAS single mutant, catalytic residue Asp307 replaced by Ala
cGAS function in cells (in words) [1]: non-functional; also recorded: functionally dead

Molecule: Nc1nc2c(ncn2[C@@H]2O[C@@H]3COP(=O)(O)O[C@H]4[C@@H](O)[C@H](n5cnc6c(N)ncnc65)O[C@@H]4COP(=O)(O)O[C@H]3[C@H]2O)c(=O)[nH]1 [c[G(3′,5′)pA(3′,5′)p]]
concentration at which production of interferon is stimulated (THP 1 cells): 10 nM | concentration at which production of interferon is stimulated (Raw264.7 cells): 10 nM

Molecule: Asp213: cGAS single mutant, catalytic residue Asp213 replaced by Ala
cGAS function in cells (in words) [1]: non-functional; also recorded: functionally dead

Molecule: Nc1nc2c(ncn2[C@H]2C[C@H](O)[C@@H](COP(=O)(O)OP(=O)(O)OP(=O)(O)O)O2)c(=O)[nH]1 [2′-dGTP, reference compound]
cyclic dinucleotide formation with the nucleotide as cGAS substrate in place of GTP or ATP (in words) (cGAS [3]): not at all; also recorded: unable to form a cyclic dinucleotide

Molecule: Glu211: cGAS single mutant, catalytic residue Glu211 replaced by Ala
c[G(2′,5′)pA(3′,5′)p] formation by cGAS protein in vitro (in words) (cGAS [2]): functionally dead | cGAS function in cells (in words) [1]: non-functional; also recorded: functionally dead

cyclic dinucleotide formation with the nucleotide as cGAS substrate in place of GTP or ATP (in words) (cGAS [3]): no product or intermediate formation
Molecule: Nc1ncnc2c1ncn2[C@@H]1O[C@H](COP(=O)(O)O)[C@@H](O)[C@H]1O [AMP, reference compound]

cyclic dinucleotide formation with the nucleotide as cGAS substrate in place of GTP or ATP (in words) (cGAS [3]): reduced amount of the cylic-dinucleotide
Molecule: Nc1nc2c(ncn2[C@@H]2O[C@H](COP(=O)(O)OP(=O)(O)O)[C@@H](O)[C@H]2O)c(=O)[nH]1 [GDP, reference compound]

B1: S165A, N172A, K372A triple mutant: cGAS dsDNA-binding triple mutant (protein)
chain: PDKLKKVLDKLRLKRKDIAEAAETVAKVVERLLRRMQKRESEFKGVEQLNTGSYYEHVKISAPNEFDVMFKLEVPRIELQEYYETGAFYLVKFKRIPRGNPLSHFLEGEVLSATKMLSKFRKIIKEEVKEIKDIDVSVEKEKPGSPAVTLLIRNPEEISVDIILALESKGSWPISTKEGLPIQGWLGTKVRTNLRREPFYLVPKNAKDGNSFQGETWRLSFSHTEAYILNNHGIEKTCCESSGAKCCRKECLKLMKYLLEQLKKEFQELDAFCSYHVKTAIFHMWTQDPQDSQWDPRNLSSCFDKLLAFFLECLRTEKLDHYFIPKFNLFSQELIDRKSKEFLSKKIEYERNNGFPIFDKL
c[G(2′,5′)pA(3′,5′)p] formation by cGAS protein in vitro (in words) (cGAS [2]): complete loss in activity | cGAS function in cells (in words) [1]: complete loss in activity and ability to stimulate interferon production

B2: R158A, R161A, K395A triple mutant: cGAS dsDNA-binding triple mutant (protein)
chain: B1 chain with R12A, R15A, A19S, A26N, A226K, K249A
c[G(2′,5′)pA(3′,5′)p] formation by cGAS protein in vitro (in words) (cGAS [2]): complete loss in activity | cGAS function in cells (in words) [1]: complete loss in activity and ability to stimulate interferon production

B3: N196A, Y200A, K372A triple mutant: cGAS dsDNA-binding triple mutant (protein)
chain: B1 chain with A19S, A26N, N50A, Y54A
c[G(2′,5′)pA(3′,5′)p] formation by cGAS protein in vitro (in words) (cGAS [2]): complete loss in activity | cGAS function in cells (in words) [1]: complete loss in activity and ability to stimulate interferon production

B4: S165A, N172A, Y200A triple mutant: cGAS dsDNA-binding triple mutant (protein)
chain: B1 chain with Y54A, A226K
c[G(2′,5′)pA(3′,5′)p] formation by cGAS protein in vitro (in words) (cGAS [2]): partial loss in activity | cGAS function in cells (in words) [1]: partial loss in activity
